Results as given in ChEMBL document CHEMBL1154658, “Novel macrocyclic inhibitors of hepatitis C NS3/4A protease featuring a 2-amino-1,3-thiazole as a P4 carbamate replacement” (J Med Chem, 2009).

How the values were obtained:
[1] = test system: Rattus norvegicus; assay: (§1) AUC (0 to 4 hrs) in Sprague-Dawley rat at 4 mg/kg, po; format: ADME, organism-based, Plasma; design: time < 4 hr, dose 4 mg/kg, route oral; details: in vivo, 4 h
[2] = test system: Rattus norvegicus; assay: (§2) Plasma clearance in Sprague-Dawley rat at 4 mg/kg, po; format: ADME, organism-based; design: dose 4 mg/kg, route oral; details: in vivo
[3] = Oral bioavailability in Sprague-Dawley rat at 4 mg/kg; format: ADME, organism-based; details: in vivo
[4] = test system: Hepatitis C virus; assay: Antiviral activity against HCV 1b infected in human Huh7 cells by bicistronic replicon RNA assay in presence of 50% normal human serum; format: functional, organism-based, Hepacivirus hominis; details: genotype 1b, Huh-7
[5] = test system: Hepatitis C virus; assay: Inhibition of HCV 1b NS3/4A protease by time-resolved fluorescence assay; design: species or system Hepatitis C virus subtype 1b
[6] = Drug level in Sprague-Dawley rat liver at 4 mg/kg, po after 4 hrs; format: ADME, organism-based; design: dose 4 mg/kg, route oral; details: read-out: Drug uptake
[7] = test system: Hepatitis C virus; assay: Antiviral activity against HCV 1b infected in human Huh7 cells by bicistronic replicon RNA assay in presence of 10% fetal bovine serum; format: functional, organism-based, Hepacivirus hominis; details: genotype 1b, Huh-7
[8] = as §1; format: ADME, organism-based, Plasma; design: time < 4 hr, dose 4 mg/kg, route oral; details: Sprague-Dawley, plasma
[9] = as §2; format: ADME, organism-based; design: dose 4 mg/kg, route oral; details: Sprague-Dawley, plasma
[10] = test system: Rattus norvegicus; assay: AUC (0 to 4 hrs) in Sprague-Dawley rat at 5 mg/kg, po; format: ADME, organism-based, Plasma; design: time < 4 hr, dose 5 mg/kg, route oral; details: in vivo, 4 h
[11] = Drug level in Sprague-Dawley rat liver at 5 mg/kg, po after 4 hrs; format: ADME, organism-based; design: dose 5 mg/kg, route oral; details: read-out: Drug uptake
[12] = Oral bioavailability in Sprague-Dawley rat at 5 mg/kg; format: ADME, organism-based; details: in vivo
[13] = test system: Rattus norvegicus; assay: Plasma clearance in Sprague-Dawley rat at 5 mg/kg, po; format: ADME, organism-based; design: dose 5 mg/kg, route oral; details: in vivo
[14] = Selectivity for HCV NS3/4A protease over trypsin
[15] = Selectivity for HCV NS3/4A protease over chymotrypsin
[16] = Cmax in Sprague-Dawley rat at 10 mg/kg, po; format: ADME, organism-based; design: dose 10 mg/kg, route oral; details: in vivo
[17] = Drug level in Sprague-Dawley rat liver at 5 mg/kg, po after 24 hrs; format: ADME, organism-based; design: dose 5 mg/kg, route oral; details: read-out: Drug uptake
[18] = Cmax in Beagle dog at 10 mg/kg, po; format: ADME, organism-based, Canis lupus familiaris; design: dose 10 mg/kg, route oral; details: in vivo
[19] = AUC in Sprague-Dawley rat at 10 mg/kg, po; format: ADME, organism-based; design: dose 10 mg/kg, route oral; details: plasma
[20] = AUC in Beagle dog at 2 mg/kg, iv; format: ADME, organism-based, Canis lupus familiaris; design: dose 2 mg/kg, route intravenous; details: plasma
[21] = Cmax in Sprague-Dawley rat at 20 mg/kg, po; format: ADME, organism-based; design: dose 20 mg/kg, route oral; details: in vivo
[22] = Bioavailability in Beagle dog at 2 mg/kg, iv; format: ADME, organism-based, Canis lupus familiaris; details: in vivo
[23] = AUC in Sprague-Dawley rat at 5 mg/kg, po; format: ADME, organism-based; design: dose 5 mg/kg, route oral; details: plasma
[24] = Cmax in Sprague-Dawley rat at 30 mg/kg, po; format: ADME, organism-based; design: dose 30 mg/kg, route oral; details: in vivo
[25] = Cmax in Beagle dog at 5 mg/kg, po; format: ADME, organism-based, Canis lupus familiaris; design: dose 5 mg/kg, route oral; details: in vivo
[26] = Drug level in Sprague-Dawley rat liver at 30 mg/kg, po after 24 hrs; format: ADME, organism-based; design: dose 30 mg/kg, route oral; details: read-out: Drug uptake
[27] = Drug level in Sprague-Dawley rat liver at 20 mg/kg, po after 24 hrs; format: ADME, organism-based; design: dose 20 mg/kg, route oral; details: read-out: Drug uptake
[28] = Plasma clearance in Beagle dog at 2 mg/kg, iv; format: ADME, organism-based, Canis lupus familiaris; design: dose 2 mg/kg, route intravenous
[29] = AUC in Beagle dog at 5 mg/kg, po; format: ADME, organism-based, Canis lupus familiaris; design: dose 5 mg/kg, route oral; details: plasma
[30] = AUC in Beagle dog at 10 mg/kg, po; format: ADME, organism-based, Canis lupus familiaris; design: dose 10 mg/kg, route oral; details: plasma
[31] = AUC in Sprague-Dawley rat at 30 mg/kg, po; format: ADME, organism-based; design: dose 30 mg/kg, route oral; details: plasma
[32] = AUC in Sprague-Dawley rat at 20 mg/kg, po; format: ADME, organism-based; design: dose 20 mg/kg, route oral; details: plasma
[33] = Cmax in Beagle dog at 2 mg/kg, iv; format: ADME, organism-based, Canis lupus familiaris; design: dose 2 mg/kg, route intravenous; details: in vivo
[34] = Cmax in Sprague-Dawley rat at 5 mg/kg, po; format: ADME, organism-based; design: dose 5 mg/kg, route oral; details: in vivo
[35] = Bioavailability in Sprague-Dawley rat at 4 mg/kg, iv; format: ADME, organism-based; details: in vivo
[36] = AUC in Sprague-Dawley rat at 4 mg/kg, iv; format: ADME, organism-based; design: dose 4 mg/kg, route intravenous; details: plasma
[37] = Inhibition of HCV NS3/4A protease; design: species or system Hepacivirus hominis
[38] = Plasma clearance in Sprague-Dawley rat at 4 mg/kg, iv; format: ADME, organism-based; design: dose 4 mg/kg, route intravenous
[39] = Inhibition of HCV 2a NS3/4A protease; design: species or system Hepatitis C virus subtype 2a
[40] = Cmax in Sprague-Dawley rat at 4 mg/kg, iv; format: ADME, organism-based; design: dose 4 mg/kg, route intravenous; details: in vivo
[41] = Inhibition of HCV 3a NS3/4A protease; design: species or system Hepatitis C virus subtype 3a

## C=C[C@@H]1C[C@]1(NC(=O)[C@@H]1C[C@@H]2CN1C(=O)[C@H](C1CCCCC1)Nc1nc(cs1)CCC/C=C/c1cccc3c1CN(C3)C(=O)O2)C(=O)NS(=O)(=O)C1CC1.O=C(O)C(F)(F)F
[1]
  AUC: 0.4 µM·h
[2]
  CL: 17 mL/min/kg
[3]
  bioavailability: 8%
[4]
  EC50: 16 nM
[5]
  Ki: 0.04 nM
[6]
  concentration at 4 h: 350 nM
[7]
  EC50: 3 nM

## CCC1C[C@]1(NC(=O)[C@@H]1C[C@@H]2CN1C(=O)[C@H](C1CCCCC1)Nc1nc(cs1)CCC/C=C/c1cccc3c1CN(C3)C(=O)O2)C(=O)NS(=O)(=O)C1CC1.O=C(O)C(F)(F)F (single isomer, unassigned)
[8]
  AUC(0-t) at 4 h: < 0.01 µM·h
[9]
  CL/F: 56 mL/min/kg
[3]
  bioavailability: < 0.01%
[4]
  EC50: 50 nM
[5]
  Ki: 0.16 nM
[6]
  concentration at 4 h: 570 nM
[7]
  EC50: 12 nM

## C=C[C@@H]1C[C@]1(NC(=O)[C@@H]1C[C@@H]2CN1C(=O)[C@H](C(C)C)Nc1nc(cs1)CCC/C=C/c1cccc3c1CN(C3)C(=O)O2)C(=O)NS(=O)(=O)C1CC1.O=C(O)C(F)(F)F
[10]
  AUC: 0.4 µM·h
[11]
  concentration at 4 h: 600 nM
[4]
  EC50: 50 nM
[5]
  Ki: 0.16 nM
[12]
  bioavailability: 8%
[7]
  EC50: 5 nM
[13]
  CL: 21 mL/min/kg

## C=C[C@@H]1C[C@]1(NC(=O)[C@@H]1C[C@@H]2CN1C(=O)[C@H]([C@@H](C)CC)Nc1nc(cs1)CCC/C=C/c1cccc3c1CN(C3)C(=O)O2)C(=O)NS(=O)(=O)C1CC1
[14]
  fold change (FC): > 15000
[15]
  fold change (FC): > 15000

## C=C[C@@H]1C[C@]1(NC(=O)[C@@H]1C[C@@H]2CN1C(=O)[C@H]([C@@H](C)CC)Nc1nc(cs1)CCC/C=C/c1cccc3c1CN(C3)C(=O)O2)C(=O)[N-]S(=O)(=O)C1CC1.[K+]
[16]
  Cmax: 1400 nM
[17]
  concentration at 24 h: 10 nM
[18]
  Cmax: 4000 nM
[19]
  AUC: 2.5 µM·h
[20]
  AUC: 0.2 µM·h
[21]
  Cmax: 5900 nM
[22]
  bioavailability: 17%
[23]
  AUC: 1.7 µM·h
[24]
  Cmax: 8000 nM
[25]
  Cmax: 1160 nM
[26]
  concentration at 24 h: 60 nM
[27]
  concentration at 24 h: 40 nM
[12]
  bioavailability: 26%
[28]
  clearance: 38 mL/min/kg
[29]
  AUC: 0.5 µM·h
[30]
  AUC: 10 µM·h
[31]
  AUC: 21 µM·h
[32]
  AUC: 13.3 µM·h
[33]
  Cmax: 60 nM
[34]
  Cmax: 500 nM

## C=C[C@@H]1C[C@]1(NC(=O)[C@@H]1C[C@@H]2CN1C(=O)[C@H]([C@@H](C)CC)Nc1nc(cs1)CCC/C=C/c1cccc3c1CN(C3)C(=O)O2)C(=O)NS(=O)(=O)C1CC1.O=C(O)C(F)(F)F
[35]
  bioavailability: 13%
[8]
  AUC(0-t) at 4 h: 0.7 µM·h
[9]
  CL/F: 17 mL/min/kg
[36]
  AUC: 0.7 µM·h
[3]
  bioavailability: 13%
[37]
  Ki: 4 nM
[4]
  EC50: 18 nM
  EC90: 40 nM
[5]
  Ki: 0.04 nM
[38]
  clearance: 17 mL/min/kg
[6]
  concentration at 4 h: 350 nM
[7]
  EC50: 2 nM
  EC90: 3 nM
[39]
  Ki: 0.4 nM
[40]
  Cmax: 400 nM
[41]
  Ki: 45 nM

## C=C[C@@H]1C[C@]1(NC(=O)[C@@H]1C[C@@H]2CN1C(=O)[C@H](C1CCCC1)Nc1nc(cs1)CCC/C=C/c1cccc3c1CN(C3)C(=O)O2)C(=O)NS(=O)(=O)C1CC1.O=C(O)C(F)(F)F
[8]
  AUC(0-t) at 4 h: 0.7 µM·h
[9]
  CL/F: 25 mL/min/kg
[3]
  bioavailability: 36%
[4]
  EC50: 16 nM
  EC90: 34 nM
[5]
  Ki: 0.08 nM
[6]
  concentration at 4 h: 180 nM
[7]
  EC50: 2 nM
  EC90: 3 nM

## C=C[C@@H]1C[C@]1(NC(=O)[C@@H]1C[C@@H]2CN1C(=O)[C@H](C(C)(C)C)Nc1nc(cs1)CCCCCc1cccc3c1CN(C3)C(=O)O2)C(=O)NS(=O)(=O)C1CC1.O=C(O)C(F)(F)F
[10]
  AUC: 0.06 µM·h
[11]
  concentration at 4 h: 60 nM
[4]
  EC50: 19 nM
[5]
  Ki: 0.16 nM
[12]
  bioavailability: 5%
[7]
  EC50: 4 nM
[13]
  CL: 95 mL/min/kg

## C=C[C@@H]1C[C@]1(NC(=O)[C@@H]1C[C@@H]2CN1C(=O)[C@H](C(C)(C)C)Nc1nc(cs1)CCC/C=C/c1cccc3c1CN(C3)C(=O)O2)C(=O)NS(=O)(=O)C1CC1.O=C(O)C(F)(F)F
[1]
  AUC: 0.06 µM·h
[2]
  CL: 85 mL/min/kg
[3]
  bioavailability: 6%
[4]
  EC50: 23 nM
[5]
  Ki: 0.16 nM
[6]
  concentration at 4 h: 130 nM
[7]
  EC50: 3 nM
